We go through 5 molecules from patent EP2229935A1, “Peptide derivatives or pharmaceutically acceptable salts thereof, method for producing the same, use of said derivatives and pharmaceutical composition” (Nebolsin, Vladimir Evgenievich, priority 1997, dated 1999).

The subject of test [1] is mongrel male mice. The experiment in a line: Passive cutaneous anaphylaxis reaction. It is filed as in vivo. The settings on record: PCA, oral 3 days. Here is the method:
Experiments were carried out on mongrel male mice with initial body mass 22-24 g. Each group included 10 animals. Sensibilization of animals was accomplished by intradermal injection of 20-30 µl of the serum of mice obtained from preliminaryly immunized animals comprising reagent antibodies against chicken ovalbumin (OVA). […] In 48 hours after sensibilzation an anaphylaxis-provoking OVA dose (1 mg and 0,2 ml Evans blue in 0.2 ml normal saline) were intravenously injected to mice. Passive cutaneous anaphylaxis reaction intensity (PCA) was determined in 30 minutes by the size (area) of a blue spot on the internal skin surface in the site of reagent anibodies' administration. Spot size was measured in two mutually perpendicular directions and the result was expressed in mm^2.

For test [2], the system named is mongrel guinea-pigs. Kind of test: Food anaphylaxis (active anaphylactic shock) in OVA-sensitized guinea pigs. To be noted: oral 3 days before provoking anaphylaxis.
In test [3] the test system is peritoneal mast cells. Kind of test: Histamine secretion by peritoneal mast cells of sensitized rats. In kind it is in vivo, Wistar male rats. The settings on record: intraperitoneal 3 days; for Stimulated secretion, percent: OVA-stimulated. On the procedure:
Effects on histamine release. […] 2 ml of cellular suspension containing 0.1-0.2 x 10^6 MC/ml were incubated in the presence of […] OVA. Histamine secretion was expressed in percent to its total level. Histamine amount in samples was determined using spectrofluorimetric method [Short P.A., Burkhalter A., Cohn V.N. A method for fluorimetric assay of histamine in tissues. J. Pharmacol. Exper.
Animals of the control group were intraperitonelly injected normal saline (group 1). Each group included 10 animals.

The test system of test [4] is hydroxyl radical. Kind of test: Hydroxyl radical formation in the Fenton reagent (chemiluminescence). In kind it is biochemical.
Procedure: Active oxygen forms (AOF) of different nature were generated in the following systems: • A. Hydroxyl radical - in the mixture of FeSO4 with H2O2 (the Fenton reagent) [Halliwell B. Superoxide-dependent formation of hydroxyl radicals in the presence of iron salts. […] Incubation medium comprised 5 mM KH2PO4 (pH 7.4); 5 mM FeSO4; 2 mM luminol. H2O2 at final concentration 5 mM was introduced into a cuvette through a dispencer following background luminescence recording of the reagents' mixture. 5 to 10 ml of the test compounds dissolved in water were at needed concentration introduced into a cuvette.
CL flash recording duration after mixing ingredients, depended on a particular process kinetics. For each system, CL light sum (mV) was determined in the control samples without preparations (I-) and in samples comprising respective concentrations of preparations (I+). To estimate CL inhibition (activation) degree, the I+/I- ratio (in relative units) was found in the studied systems.
When H2O2 was introduced into phosphate buffer comprising iron sulfate, CL flash occured which was caused by formation of predominantly hydroxyl radical in the reaction mixture.
The test system of test [5] is Male guinea pigs. The experiment in a line: Antigen-induced bronchospasm in actively sensitized guinea pigs. In kind it is in vivo. To be noted: sensitized guinea pigs; 50 µg/kg per os, 72, 48 and 18 hours prior to bronchospasm induction. On the procedure: Antiasthmatic effect of the test compounds was studied using an antigen-induced bronchospasm model in actively sensitized guinea pigs according to the Andersson method [Andersson P. Antigen induced bronchial anaphylaxis in actively sensitized guinea pig. Allergy (1980), Vol. 35, pp. 65-71].
Male guinea pigs were sensitized with intramuscular injection of 0.5 ml suspension comprising 20 micrograms ovalbumin (OVA, manufactured by the Sigma company [grade III]) and 100 mg Al(OH)3 per one animal. Anaphylaxis-provoking dose 150-200 µg/kg OVA in 0.1 ml normal saline was intravenously (v. jugularis) injected on day 26 after sensibilization. Bronchospasm induction and measuring external respiration parameters were carried out according to the method described in Yu-Hong L., Barnes P., Rogers D. Inhibition of neurogenic plasma exudation and bronchoconstriction by a K+ channel activator, BRL 38227, in guinea pig airways in vivo. Europ. J. Pharmacol. (?), Vol. 239, pp.257-259]. Measurement of respiration parameters was performed using a transducer (Ugo Basel, model 7020), connected with a cannula and a recorder (Millichrome), recording breathing amplitude. […] Efficacy of compounds was determined by change in bronchospasm value.
Inthal was used as a reference drug that was administered to animals at a dose 5 µg/kg according to the same dosage regimen as the test substances were administered. The control group of animals received equivalent amount of normal saline.
Groups of animals: group 1 - control; group 2 - animals given Inthal; group 3 - animals given oral compound XLIV; group IV - animals given oral compound III; group 5 - animals given intratracheal compound III; group 6 - animals given compound XLIX, group 7 - animals given compound XXXI, group 8 - animals given compound XLVI; group 9 - animals given compound VI, group 10 - animals given compound XLVIII.

The test system of test [6] is white mongrel male rats. The experiment in a line: Paw edema induced by Freund's complete adjuvant. The settings on record: rats, FCA edema. In kind it is in vivo. Here is the method:
Experiment was carried out on white mongrel male rats weghing 280-300 g. The model of paw edema induced by Freund's complete adjuvant (FCA), was reproduced according to the method of Ezamuzie and Umezurike [Ezamuzie Ch., Umezurike C.C. Effect of histamine H2-receptor antagonists on acute inflammatory of the rat paw oedema. J. Pharmacol. (1989), Vol. 41, pp. 261-265]. Paw volume measurement was done using a plethysmograph (Ugo Basile). Inhibition of inflammatory reaction expressed in percent, as calculated according to the formula: 100-[(R-L(exper.))/(L):(R-L(control))/(L)x100](%) [formula] where R - the right paw volume, L - the left paw volume.
Each group included 10 animals.
Group of animals: • Group 1 - control, animals were administered 0.5 ml of 1% starch solution. • Group 2 - animals were administered the compound XLVIII. • Group 3 - animals were administered the compound III. • Group 4 - animals were administered Naproxene.

Test [7] relates to Strain Aichi of type A human influenza virus. It is filed as in vivo. To be noted: 50 µg/kg orally.
Test [8] deals with hepatic P-450 cytochrome system. The experiment in a line: Hexenal sleep duration in mice. In kind it is in vivo. The settings on record: CBF1 mice; oral 3 days, 50 µg/kg; control 25.91 ± 1.57. The procedure, abridged: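 Male mice (several inbred/hybrid lines, 18-20 g, n=10) and mongrel male guinea pigs (250-300 g, n=24) given compounds orally in drinking water for three days at 50 and 500 µg/kg. Hexenal given 24 h after last dose ([…]); sleep duration recorded in minutes.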

Test [9] relates to mongrel male mice. Kind of test: Delayed hypersensitivity induced by picryl chloride (TCB), local ointment. In kind it is in vivo. To be noted: mice, TCB. Here is the method:
Effect study of the compounds on the delayed type hypersensitivity reaction induced in mice by 2.4.6-trichlorobenzol (TCB) was carried out according to the method of Tarayre et al. [Tarayre J.P., Barbara M., Aliaga M., Tisne-Versilles. Comparative actions of immunosuppressants, glucocorticoids and non-steroidal antiinflammatory drugs on various models of delayed hypersensitivity and on a non-immune inflammation in mice. Arzneim.-Forsch. Drug Res. (1990), Vol. 40, pip.1125-1131].
Studies were conducted on mongrel male mice with initial body mass 30-35 g. Each group included 10 animals. Mice were sensitized with 0.1 ml 3% TCB solution in acetone application on a shaved abdominal area. In 7 days, the anaphylaxis-provoking TCB dose (0.025 ml of 3% solution) was applied on both surfaces of the right ear. In 30 minutes 0.05 ml of the test ointment were rubbed into the same surfaces. 24 hours after edema induction, mice were sacrified, ears were cut off and weighed. Allergic reaction intensity was assessed by change in weight in grams of the right ear (the test one) in relation to the left ear (the control ear).
Allergic reaction inhibition expressed in percent was calculated according to the formula: 100-[(R-L(exper.))/(L):(R-L(control))/(L)x100](%) [formula] where R - the right ear weight, L - the left ear weight.
The test compounds were applied on the ear in the form of 1% and 5% ointment the base of which were 10% methylcellulose solution and propylene glycol at 1:1 ratio.
Groups of animals: • Group 1 - control, ointment base without active substance was applied on the ear of animals. • Group 2 - ointment base comprising 1% compound III was applied on the ear of animals. • Group 3 - ointment base comprising 1% compound XVII was applied on the ear of animals. • Group 4 - ointment base comprising 5% compound XLVIII was applied on the ear of animals.

Test [10] deals with mongrel mice. The experiment in a line: Acute hypobaric hypoxia model (AHBH). In kind it is in vivo. The settings on record: single administration, 300,000 µg/kg. Here is the method: (§1) The tests of determining average lifetime of animals in a closed volume and on the model of acute hypobaric hypoxia at the minimum atmospheric rarefaction (170-185 mm Hg) were used to study antihypoxic activity of the compunds of general formula (I).
Simulation of AHBH was done in a flow-through chamber at temperature 22°C. Experiments were carried out on mongrel mice with initial body mass 20 g at the minimum rarefaction 170-185 mm Hg, that corresponds to the altitude of 10500-11000 m. Lift rate was 35 m/second. Each group included 15 animals. Compounds were administered orally, lift on to altitude was performed 2 hours after the last administration.
Groups of animals: • Group 1 - intact control -administration of normal saline four times. • Groups 2 and 3 - administration of the compound III at doses 50 and 500 µg/kg for 4 days. • Group 4 - single administration of sodium oxybutyrate at a dose […].

For test [11], the system named is mongrel male mice. The experiment in a line: Average lifetime of mice in a closed volume (hypoxia). To be noted: without preliminary hypoxia, oral 2 hours before hypoxia, 300 mg/kg. In kind it is in vivo. Here is the method:
as §1
Mice were one by one placed into sealed glass jars and their lifetime was recorded.
The experiment was carried out on 90 mongrel male mice having initial body mass 20 ± 0,5 g housed in cages by 10 animals and given a standard vivarium ration. Average lifetime of mice in closed vessels having volume 250 ml was preliminarily determined and it was 22 to 25 minutes. All the groups included 10 animals each.
Experimental protocol: • a) - preliminary hypoxia for 12 minutes; • b) - first administration of a compound immediately following preliminary hypoxia; • c) - second administration of a compound in 24 hours after the first one, then daily for three days; • d) - recording lifetime of animals under hypoxic conditions in a sealed space 2 hours after the last administration of a compound.
The test compounds were dissolved in distilled water and orally administered to animals for 5 days.
Experimental groups: • Group 1 -(control) - without preliminary hipoxia with oral administration of distilled water for 5 days; • Groups 2 and 3 - administration of the compound XLIV using two doses 50 and 500 µg respectively; • Group 4 - oral administration of sodium oxybutyrate at a dose […] 2 hours before hypoxia; • Group 5 -(control)- with preliminary hypoxia for 12 minutes with subsequent administration of distilled water for 5 days; • Groups 6 and 7 - administration of the compound XLIV using two doses 50 and 500 µg respectively; • Groups 8 and 9 - administration of the compound III using two doses 50 and 500 µg respectively.

Setting [12] is: intragastral four times 50 µg/kg.

Marks after values point to notes of the source that are not given here.

In the case of `CCOC(=O)N1CCC(=C2c3ccc(Cl)cc3CCc3cccnc32)CC1` [Claritine, reference compound], in test [1] (2 µg/kg), the “Percent of the reaction inhibition” value came to 92.8% and the “Reaction intensity, mm^2” value was 6.4 ± 2.3**^2 mm^2. In [2] (1000 µg/kg), the Anaphylactic index came out at 2.03, the Lethality in percent amounted to 25.0% and the Seizures in percent turned out to be 53.3%.
Regarding `CN(C)CCN(Cc1ccc(Cl)cc1)c1ccccn1` [Suprastine, reference compound], in [1] (10 µg/kg), the “Percent of the reaction inhibition” value was 7.6% and the “Reaction intensity, mm^2” value is 82.1 ± 18.1 mm^2. Besides, in [3] (1000 µg/kg), the “Stimulated secretion, percent” value came out at 7.02%; the “Histamine level, µg/10^6 MC” value is recorded as 16.24*^1 µg/10^6 MC; the “Spontaneous secretion, percent” value worked out at 5.62%.
For `N[C@H](CCC(=O)NCCc1c[nH]cn1)C(=O)O` [compound XLV, γ -L-, D-glutamylhistamine], the “relative effect: I+/I-” value in [4] (1 µM) is recorded as 1.0; in test [4] (0.01 mM), 0.95; in test [4] (0.1 mM) it was 0.74; in test [4] (1 mM), 0.16. For the same molecule, the “Chemiluminiscence intensity (mV) + σn-1” value in test [4] (1 µM, control of the series as in the table) is 7666 ± 101 mV; in [4] (0.01 mM, control of the series as in the table) it was 7443 ± 267 mV; in test [4] (0.1 mM, control of the series as in the table), 5800 ± 247 mV; in [4] (1 mM, control of the series 7839 ± 171, 1120 ± 163, 4974 ± 283 or 1332 ± 172), 2195 ± 18 mV. In addition, in [2] (50 µg/kg), the Anaphylactic index was 0.90*. The Lethality in percent in test [2] (50 µg/kg) is 6.7** percent. Also, the Seizures in percent in test [2] (50 µg/kg) was 15.5* percent. Also, the “Stimulated secretion, percent” value in test [3] (50 µg/kg) is reported as 2.32*^1,3%. The “Histamine level, µg/10^6 MC” value in [3] (50 µg/kg) is 16.90*^1 µg/10^6 MC. Besides, the “Spontaneous secretion, percent” value in test [3] (50 µg/kg) is 9.63*^1,3%.
`N[C@@H](CCC(=O)NCCc1c[nH]c2ccccc12)C(=O)O` [compound XLVIII, γ -L-glutamyltryptamine]: the “Bronchospasm (percent of the maximum value)” value in test [5] is 22.0 3.4* percent of the maximum value. Further, in [6] (setting [12]), the “Inflammation inhibition (%)” value amounted to 19%, the Volume increment is listed as 0.65 ± 0.04 and the “Volume of paws (conditional units) left” value is 1.30 ± 0.62 conditional units. Also, the “Volume of paws (conditional units) Right” value in test [6] (intragastral four times 50 µg/kg 72, 48, 24 and 1 hour before FCA) is on record as 1.95 ± 0.48 conditional units. The “MLT, days” value in test [7] (series with control - 1 (5.76), 3 days before and 10 days following infection) was 9.58*^1 days. Besides, the “Survival rate in percent” value in [7] (series with control - 1 (16.7)) was 34.5*^1%. For the same molecule, the “Protection degree in percent” value in [7] (series with control - 1) came out at 17.8%. Moreover, the “Hexenal sleep duration (minutes)” value in [8] is 16.27 ± 1.26** minutes. Also, in [9] (5% ointment), the “Reaction inhibition (%)” value is 54% and the “weight increment” value is recorded as 3.7 ± 0.81 g. Also, the “Weight of years (g) Right” value in test [9] (5% ointment on right ear 30 minutes after challenge, 24 hours) is reported as 17.9 ± 0.94 g. In test [9] (left (control) ear of animals given 5% ointment), the “Weight of years (g) left” value turned out to be 14.2 ± 0.98 g.
Take `O=C(O)CCCO` [sodium oxybutyrate, reference compound]: in [10] (lifetime relative to control), the Effect in percent is listed as 119 ± 4,4%. Also, the “Lifetime under hypoxic conditions (minutes)” value in [10] (mice, 170-185 mm Hg) is 364,3 ± 13,5 minutes. Besides, the “Lifetime (seconds)” value in test [11] is listed as 2103,9±100,5**^1 seconds.
